From patent US12031897B2, “Target-locking single-molecule nanoscopy” (Memorial Sloan Kettering Cancer Center, priority 2019, dated 2024)

Legend:
Nanog transcription site = experiment: Nanog transcription bursting (MCP-mNeonGreen, NMG mESCs); format: cell-based, mouse
Description: It is discovered that Pol II, Sox2 and Brd4 form foci at Nanog transcription sites, with nanoscale organization akin to Pou5f1—colocalization of Pol II with 3′UTR-tagged nascent RNA and resolvable separation of enhancer-associated regulatory factors (FIGS. 9A-9D).
If accumulated Brd4 at Nanog acts mainly as a Pol II pause-release factor, upon Brd4 inhibition a reduction in burst amplitude would be expected. […] Thus, beyond controlling Pol II pause-release, Brd4 regulates transcription bursting, exemplified by the striking correspondence between burst frequency and enhancer-associated Brd4 cluster size. Bursting kinetics cannot be captured by static end-point assays that provide information averaged over a population of cells (e.g. ChIP, NET-Seq etc).
Wide-Field Cell Imaging Experiments. Live cell imaging experiments (tdPCP-EGFP and MCP-mNeonGreen tracking). For time-lapse imaging, a z-stack of 11 frames at 1 frame/second was acquired, by stepping the sample along the z-axis using the nanopositioning stage (250 nm steps). The CCD data were analyzed using IDL 6.4 (ITTVIS). Maximum projection images were calculated for each stack, and the resulting 11 sec/frame movie was used to track the intensities of individual tdPCP-EGFP-tagged transcription sites. A particle tracking routine (Crocker and Grier, 1996) was used for finding the positions of the transcription site in each frame and linking them into a 2D trajectory. The intensity trace of tdPCP-EGFP at the transcription site was corrected for photo-bleaching using the time trace of tdPCP-EGFP in a nearby nuclear region. The auto-correlation function was calculated (for the tdPCP-EGFP fluctuation analysis), or the data were imported in Origin 8.5.0 (OriginLab) and the trace fitted to a single-exponential decay (for the transcription inhibition experiments).
NMG mESCs contain 24×MS2 cassettes integrated in the 3′-UTR of both Nanog alleles and also stably express MCP-mNeonGreen (Ochiai et al., 2014).

[1] = system: Pol II (FLAG-SNAP-Rpb1) at the Pou5f1 locus; experiment: ChIP-qPCR of Pol II at the Pou5f1 locus after flavopiridol treatment (mESCs); format: cell-based, mouse; conditions: 10 μM flavopiridol; by the 5-minute and 12.5-minute time points respectively
Description: mESCs. Confluent 15 cm dishes (˜10×10^6 OMG SNAP-Rpb1 clone 3 cells) were treated with 10 μM Flavopiridol or DMSO for the indicated times. Methanol-free formaldehyde (Thermo Fisher) was then directly added to the media to 1% v/v final concentration, and dishes were immediately placed on a rotator/shaker for 10 min at RT. Formaldehyde was quenched with 125 mM glycine for 5 min at RT, and cells were scraped and collected with centrifugation (800×g, 5 min at 4° C.) and washed twice with cold PBS. Cells were lysed with SDS lysis buffer (50 mM Tris-HCl pH 8, 10 mM EDTA, 1% SDS) containing protease inhibitors, and placed on ice for 10 min. Volume equivalent to 2×10^6 cells was sonicated to shear the chromatin (Branson SFX 150), and cleared using centrifugation (12,000 g, 10 min at 4° C.). The supernatant was diluted 1:10 in dilution buffer (0.01% SDS, 1.1% Triton X-100, 1.2 mM EDTA, 16.7 mM Tris-HCl pH 8, 167 mM NaCl)+protease inhibitors, pre-cleared using magnetic Protein G beads (Thermo Fisher Scientific 10003 D), for ˜2 hr at 4° C., cleared by separating the beads with a magnet, and 2% of the pre-cleared supernatant was kept at −20° C. as input. […] Eluted chromatin was analyzed with qPCR, using primer pairs specific for different Pou5f1/Oct4 regions.

In the case of `Cc1sc2c(c1C)C(c1ccc(Cl)cc1)=N[C@@H](CC(=O)OC(C)(C)C)c1nnc(C)n1-2` [JQ1], the Nanog burst duration (Nanog transcription site; JQ1 titration) is reported as “largely unaffected”, the “Hill equation n, Nanog burst frequency vs. [JQ1]” value (Nanog transcription site; Nanog, mESCs) is reported as 0.9±0.3 and the Nanog burst amplitude (Nanog transcription site; at higher [JQ1]) is reported as “modest reduction”. The Nanog burst frequency (Nanog transcription site; at low [JQ1]) was “dramatically reduced”.

In the case of `CN1CC[C@H](c2c(O)cc(O)c3c(=O)cc(-c4ccccc4Cl)oc23)[C@H](O)C1` [flavopiridol], the “Pol II ChIP signal at Pou5f1 gene body and 3'UTR regions” value [1] is reported as “significant and near-complete losses”.
